Measurements published in publication PMC8119466, “A screen of FDA-approved drugs identifies inhibitors of protein tyrosine phosphatase 4A3 (PTP4A3 or PRL-3)” (Scientific Reports, 2021).
Counter-ions that a name gives are not always drawn. Like-named read-outs stand apart in the source and are kept apart here.

Columns and labels:
Type in all cases: biochemical
[1] = molecular target: T1, recombinant PRL-3 (Homo sapiens, UniProt O75365); assay: In vitro phosphatase assay (DiFMUP hydrolysis), PRL-3; also: test concentration or dose not given here
T1 construct: 6xHis (N, cleaved yes); made in house; host or cells: E. coli One Shot BL21 Star
T1 sequence (O75365 whole entry): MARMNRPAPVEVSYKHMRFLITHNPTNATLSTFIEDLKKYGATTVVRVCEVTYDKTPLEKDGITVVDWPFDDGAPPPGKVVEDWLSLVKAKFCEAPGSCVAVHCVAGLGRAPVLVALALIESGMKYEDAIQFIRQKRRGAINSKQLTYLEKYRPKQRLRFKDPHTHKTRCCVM

[2] = molecular target: T2, recombinant PRL-1 (Homo sapiens, UniProt Q93096); assay: In vitro phosphatase assay (DiFMUP hydrolysis), PRL-1; also: test concentration or dose not given here
T2 construct: 6xHis (N, cleaved yes); made in house; host or cells: E. coli One Shot BL21 Star
T2 sequence (Q93096 1-173): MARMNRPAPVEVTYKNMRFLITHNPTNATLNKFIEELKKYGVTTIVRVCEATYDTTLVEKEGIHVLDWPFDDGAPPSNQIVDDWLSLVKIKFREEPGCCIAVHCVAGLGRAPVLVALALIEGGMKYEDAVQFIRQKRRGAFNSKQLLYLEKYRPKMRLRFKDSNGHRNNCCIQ

[3] = molecular target: T3, recombinant PRL-2 (Homo sapiens, UniProt Q12974); assay: In vitro phosphatase assay (DiFMUP hydrolysis), PRL-2;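 also: PRL-2 activity read as DiFMUP hydrolysis after 20 min at room temperature with drug, enzyme first pre-reduced at 4 °C for 20 min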
T3 construct: 6xHis (N, cleaved yes); made in house; host or cells: E. coli One Shot BL21 Star
T3 sequence (Q12974 1-167): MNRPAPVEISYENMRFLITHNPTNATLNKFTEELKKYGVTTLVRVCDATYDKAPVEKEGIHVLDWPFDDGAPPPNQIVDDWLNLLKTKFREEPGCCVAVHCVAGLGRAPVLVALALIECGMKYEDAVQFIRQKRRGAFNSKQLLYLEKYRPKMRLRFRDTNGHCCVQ

[4] = FDA-approved drug screen, activity compared to DMSO

SMILES | % Phosphatase Activity (compared to DMSO) PRL-3 [1, 4] | % Phosphatase Activity (compared to DMSO) PRL-1 [2, 4] | % Phosphatase Activity (compared to DMSO) PRL-2 [3, 4] | % Phosphatase Activity (compared to DMSO) PRL-3 [1] | % Phosphatase Activity (compared to DMSO) PRL-1 [2] | % Phosphatase Activity (compared to DMSO) PRL-2 [3]
CCS(=O)(=O)CCn1c([N+](=O)[O-])cnc1C [Tinidazole] | 84% | 107% | 113% | – | – | –
Clc1ccc(C(Cn2ccnc2)OCc2ccsc2Cl)c(Cl)c1 (stereo not drawn) [Tioconazole] | – | – | – | 84% | 83% | 92%
CC(S)C(=O)NCC(=O)O (stereo not drawn) [Tiopronin] | 98% | 90% | 119% | – | – | –
C[N+]1(C)[C@@H]2C[C@@H](OC(=O)C(O)(c3cccs3)c3cccs3)C[C@H]1[C@@H]1O[C@@H]12 [Tiotropium Bromide hydrate] | 84% | 95% | 115% | – | – | –
O=c1oc2cc(O)ccc2s1 [Tioxolone] | 92% | 102% | 124% | – | – | –
O=C1NC(=O)[C@@H](c2cn3c4c(cccc24)CCC3)[C@@H]1c1c[nH]c2ccccc12 [Tivantinib (ARQ 197)] | 90% | 95% | 83% | – | – | –
COc1cc2nccc(Oc3ccc(NC(=O)Nc4cc(C)on4)c(Cl)c3)c2cc1OC [Tivozanib (AV-951)] | 75% | 107% | 101% | – | – | –
Clc1ccc2nsnc2c1NC1=NCCN1 [Tizanidine HCl] | – | – | – | 76% | 93% | 92%
NC[C@H]1O[C@H](O[C@H]2[C@H](O)[C@@H](O[C@H]3O[C@H](CO)[C@@H](O)[C@H](N)[C@H]3O)[C@H](N)C[C@@H]2N)[C@H](N)C[C@@H]1O [Tobramycin] | 91% | 99% | 97% | – | – | –
C[C@@H]1CCN(C(=O)CC#N)C[C@@H]1N(C)c1ncnc2[nH]ccc12.O=C(O)CC(O)(CC(=O)O)C(=O)O [Tofacitinib (CP-690550) Citrate] | 104% | 109% | 91% | – | – | –
C[C@@H]1CCN(C(=O)CC#N)C[C@@H]1N(C)c1ncnc2[nH]ccc12 [Tofacitinib (CP-690550,Tasocitinib)] | 96% | 117% | 114% | – | – | –
Cc1ccc(S(=O)(=O)NC(=O)NN2CCCCCC2)cc1 [Tolazamide] | 82% | 81% | 84% | – | – | –
c1ccc(CC2=NCCN2)cc1 [Tolazoline HCl] | 91% | 100% | 110% | – | – | –
CCCCNC(=O)NS(=O)(=O)c1ccc(C)cc1 [Tolbutamide] | 91% | 104% | 119% | – | – | –
Cc1ccc(C(=O)c2cc(O)c(O)c([N+](=O)[O-])c2)cc1 [Tolcapone] | 71% | 78% | 89% | – | – | –
Cc1c(Cl)cccc1Nc1ccccc1C(=O)O [Tolfenamic Acid] | 86% | 97% | 86% | – | – | –

SMILES | % Phosphatase Activity (compared to DMSO) PRL-3 [1, 4] | % Phosphatase Activity (compared to DMSO) PRL-1 [2, 4] | % Phosphatase Activity (compared to DMSO) PRL-2 [3, 4] | % Phosphatase Activity (compared to DMSO) PRL-3 [1] | % Phosphatase Activity (compared to DMSO) PRL-1 [2] | % Phosphatase Activity (compared to DMSO) PRL-2 [3]
Cc1ccc(C(=O)c2ccc(CC(=O)O)n2C)cc1 [Tolmetin Sodium] | 111% | 95% | 79% | – | – | –
Cc1cccc(N(C)C(=S)Oc2ccc3ccccc3c2)c1 [Tolnaftate] | 89% | 98% | 114% | – | – | –
Cc1ccc(C(=O)C(C)CN2CCCCC2)cc1.Cl (stereo not drawn) [Tolperisone HCl] | 71% | 91% | 108% | – | – | –
Cc1ccc(O)c([C@H](CCN(C(C)C)C(C)C)c2ccccc2)c1 [Tolterodine tartrate] | 93% | 98% | 110% | – | – | –
Cc1cc(-n2c(=O)[nH]c(=O)n(C)c2=O)ccc1Oc1ccc(SC(F)(F)F)cc1 [Toltrazuril] | 73% | 88% | 93% | – | – | –
Cc1ccccc1C(=O)Nc1ccc(C(=O)N2CCCC(O)c3cc(Cl)ccc32)c(C)c1 (stereo not drawn) [Tolvaptan] | 101% | 97% | 143% | – | – | –
CC1(C)O[C@@H]2[C@@H](CO[C@@]3(COS(N)(=O)=O)OC(C)(C)O[C@@H]23)O1 [Topiramate] | 99% | 118% | 122% | – | – | –
CC[C@@]1(O)C(=O)OCc2c1cc1n(c2=O)Cc2cc3c(CN(C)C)c(O)ccc3nc2-1 [Topotecan HCl] | 140% | 168% | 192% | – | – | –
CN(C)CCOc1ccc(/C(=C(/CCCl)c2ccccc2)c2ccccc2)cc1 [Toremifene Citrate] | 103% | 95% | 105% | – | – | –
Cc1cccc(Nc2ccncc2S(=O)(=O)NC(=O)NC(C)C)c1 [Torsemide] | 77% | 99% | 93% | – | – | –
CC(=O)Nc1cccc(-n2c(=O)n(C3CC3)c(=O)c3c(Nc4ccc(I)cc4F)n(C)c(=O)c(C)c32)c1 [Trametinib (GSK1120212)] | 88% | 88% | 112% | – | – | –
NC[C@H]1CC[C@H](C(=O)O)CC1 [Tranexamic Acid] | 96% | 92% | 89% | – | – | –
COc1ccc(/C=C/C(=O)Nc2ccccc2C(=O)O)cc1OC [Tranilast] | 82% | 88% | 73% | – | – | –
O=c1n(CCCN2CCN(c3cccc(Cl)c3)CC2)nc2ccccn12 [Trazodone HCl] | 93% | 146% | 142% | – | – | –
Cn1c(=O)cc(N2CCC[C@@H](N)C2)n(Cc2cc(F)ccc2C#N)c1=O [Trelagliptin] | 107% | 106% | 76% | – | – | –
CC1=C(/C=C/C(C)=C/C=C/C(C)=C/C(=O)O)C(C)(C)CCC1 [Tretinoin] | 46% | 78% | 77% | – | – | –
